In publication PMC12648443, “Modifications of NU-9, a potent protein aggregation inhibitor. Properties and activity in a cellular model of amyotrophic lateral sclerosis” (Bioorganic chemistry, 2025):

Key:
[1] = Parallel artificial membrane permeability assay - blood brain barrier (PAMPA-BBB); conditions: pig, PAMPA, pH 7.5
Procedure: (§3) A solution of 1 × PBS (pH 7.5) was initially prepared by the dilution of a commercially available 10 × PBS solution. […] A solution of porcine brain lipid (PBL) (20 mg/mL in dodecane) was prepared, and 4 μL of this solution was used to coat the filters on the bottom of the PAMPA donor plates (Sigma Aldrich #MAIPNTR10). After air drying for 20 min, the donor plate wells were charged with 250 μL of the solutions of the test compounds or the controls. The donor plate was then placed over the acceptor plate (Sigma Aldrich #MATRNPS50), in which wells were previously filled with 1 × PBS (2 % DMSO v/v) solution. The PAMPA sandwich was closed with parafilm and incubated at 25 °C for 18 h in a humidity-saturated atmosphere with orbital agitation. […] The UV spectra (250–400 nm) of each well were acquired on a BioTek Synergy H1 MD plate reader equipped with a monochromator at room temperature.
(§4) CA(t) is the concentration of the compounds at the final time of incubation on the acceptor well; CD(0) and CD(t) are the concentration of the compounds at the initial time of incubation and at the final time of incubation on the donor well, respectively.

[2] = set-up: method as in PMID 33634973; conditions: human microsomes; cited from earlier work
[3] = system: primary hippocampal neurons; set-up: method as in PMID 40030015; conditions: cited from earlier work
[4] = set-up: method as in PMID 33634973; conditions: mouse microsomes; cited from earlier work
[5] = In vitro cytotoxicity, CellTiter-Glo, HEK293; type: cell-based; conditions: human, HEK293 cells
Procedure: (§1) The HepG2 and HEK293 cells were cultured in DMEM media supplemented with 10 % FBS (heat-inactivated), 1 % Pen-strep, and L-glutamine and incubated at 37 °C in humidified air with 5 % CO2 until 85–90 % confluency. The PC12 Tet-Off-SOD1^G85R YFP cells were maintained as described in 4.2. On the day before the experiments, the cells were transferred to white bottom 96 well plates (Greiner cat. 655,083) at a concentration of 50,000 cells/100 μL of media in each well and incubated overnight at 37 °C. Stock solutions of the compounds (30 mM) in DMSO were prepared and then diluted in media to obtain the six final working solutions starting at 30 μM, and serial dilutions were obtained with the lowest concentration at 0.25 μM. The media were removed and fresh media containing the compounds or the vehicle DMSO (0.1 % v/v) were transferred to the plates containing HepG2 and HEK293 cells and the plates were incubated for 24 or 48 h at 37 °C. The PC12 Tet-Off-SOD1^G85R YFP cells compound treatment was performed as described in section 4.2 and using a 9-point 2-fold serial dilution of the compounds starting at 15 μM and the lowest concentration at 0.05 μM. After incubation, the plates were cooled to room temperature and 25 μL of CellTiter-Glo® solution was added to each well. The plates were loaded into a BioTek Synergy H1 MD plate reader and shaken for 2 min, stabilized for 10 min without shaking, and then the luminescence values were read for each well (luminescence integration step 1 ms). Wells containing media with the vehicle DMSO with or without cells were used as controls to represent, respectively, the maximum viability and the lowest viability (background signal) for the cytotoxicity studies with HepG2 and HEK293 cell lines. The viability values for the assay performed with the PC12 Tet-Off-SOD1^G85R YFP cells were normalised for the vehicle (0.1 % DMSO) and (−)-MG-132 alone treatments, which represented respectively the […] viability for the assay.
(§2) The results are presented as an average of three independent experiments, each performed in triplicate, for the cytotoxicity experiments performed with HepG2 and HEK293 cells. The results for the protective screening with the PC12 Tet-Off-SOD1^G85R YFP cells are presented as an average of four replicates.

[6] = system: primary hippocampal neuronal cells; set-up: method as in PMID 40030015; conditions: cited from earlier work
[7] = In vitro cytotoxicity, CellTiter-Glo, HepG2; type: cell-based; conditions: human, HepG2 cells
Procedure: as §1, §2

HepG2 cells = experiment: In vitro cytotoxicity, CellTiter-Glo, HepG2; type: cell-based; conditions: cytotoxicity EC50 (HepG2, HEK293) versus PC12-SOD1^G85R EC50
Procedure: as §1, §2

[8] = system: cells containing SOD1 mutations associated with ALS; set-up: method as in PMID 21073276, PMID 22189273, PMID 22837812; conditions: Fig. 1, evolution of CHD series; cited from earlier work
[9] = system: PC12-SOD1^G85R YFP cells co-treated with MG132; experiment: Viability screening against MG132-induced toxicity, CellTiter-Glo; type: cell-based; conditions: PC12-SOD1^G85R YFP cells co-treated with MG132 and the compounds; read-out: PC12-SOD1^G85R EC50, in vitro viability screening (protection against MG132-induced toxicity)
Procedure: as §1, with “assay. […]” for “assay.”

[10] = system: MG132-induced mutant SOD1 intracellular aggregation in PC12-SOD1^G85R YFP cells; experiment: Protection against MG132-induced mut-SOD1 intracellular aggregation (fluorescence microscopy); type: cell-based
Procedure: The PC12 Tet-Off-SOD1^G85R YFP cells were cultured in DMEM media supplemented with 10 % horse serum, 5 % Tet-approved FBS, 1 % Penstrep, 1× L-glutamine, 200 μg/mL hygromycin, 100 μg/mL G418, with 1 μg/mL Doxycycline and were incubated at 37 °C in humidified air with […] until 90–95 % confluency. To induce the expression of SOD1^G85R YFP, the Doxycycline was removed at least 4 days before the experiment. To remove the Doxycycline, the media was removed, and the cells were washed 3 times with 1xPBS. The cells were then cultured in standard culture media without Doxycycline. To set up the assay, the cells were then seeded into 96-well cell culture plates (Greiner Bio-One Catalog #655090) at a concentration of 50,000 cells/well with a final volume of 100 μL/well and incubated in the CO2 incubator at 37 °C for 24 h. The media were removed from the cells and replaced with 100 μL of media containing 0.1 % DMSO or compounds, and incubated in the CO2 incubator at 37 °C for 6 h. The media were then replaced with fresh 100 μL of media containing the diluted compounds with 0.7 μM (−)-MG-132, and the plates were incubated for 72 h under culture conditions. After 72 h, the cells were stained with Hoescht 33,342 (55 μg/mL, 10 μL/well) and imaged (lex = 358, 513 nm) using a Molecular Devices ImageXpress Micro Confocal High-Content Imaging System equipped with a 40× objective. […] Image binning was set to 2. DAPI fluorescence was captured using an exposure time of 300 ms, and FITC fluorescence was captured using an exposure time of 400 ms. A 13-plane z-series was acquired for each field of view with a step size of 3 μm. For each condition, 2 sets of 9 images were generated in a 3 × 3 grid to separately image the SOD1^G85R YFP proteins and the nuclei stained with Hoescht 33,342. Image analysis was performed with MetaXpress software (Molecular Devices) using the Transfluor module. Parameters for puncta detection (aggregates) were set with a minimum pit width of 2 μm and a maximum pit width of 5 μm. Signal intensity thresholds were defined as 700 grayscale units above the local background. The analysis provided the average area of each cell that is covered by puncta (pit/cell), which are indicated by bright green spots on the SOD1^G85RYFP image set.
The assay was performed in triplicate for each condition tested, and wells containing the media with vehicle (0.1 % DMSO) or (−)-MG-132 alone were used as controls representing the minimum and maximum aggregate formation. […] The data for EC50 determination was treated with Prism and fitted using a semi-logarithmic curve for determination of the EC50 values of NU9 and compounds 4, 6, 20 and 21.

[11] = pig, PAMPA, 18 h, 250 μM, pH 7.5
Procedure: as §3, §4

## C[C@H](Oc1cc(C(F)(F)F)cc(C(F)(F)F)c1)C1CC(=O)CC(=O)C1 [NU-9]
[1]
  Papp at 18 h, 250 μM: 6.98 ± 0.14 ×10⁻⁶ cm/s
[2]
  t1/2 (human): 74^27 min
[3]
  LC3II puncta: capable of increasing LC3II puncta
[4]
  t1/2 (mouse): 52^27 min
[5]; 30 μM, 24 h, relative to untreated cells, read-out: Percentage of viable cells observed at 30 μM treatment, HEK293
  viability at 24 h, 30 μM: 85.7%
[5]; 30 μM, 48 h, relative to untreated cells, read-out: Percentage of viable cells observed at 30 μM treatment, HEK293
  viability at 48 h, 30 μM: 89.6%
[5]; cytotoxicity, 24 h
  EC50 at 24 h: > 30 µM
[5]; cytotoxicity, 48 h
  EC50 at 48 h: > 30 µM
[6]
  Amyloid-beta oligomer build-up: capable of reducing Amyloid-beta oligomer build-up
[7]; 30 μM, 24 h, relative to untreated cells, read-out: Percentage of viable cells observed at 30 μM treatment, HepG2
  viability at 24 h, 30 μM: 93.5%
[7]; 30 μM, 48 h, relative to untreated cells, read-out: Percentage of viable cells observed at 30 μM treatment, HepG2
  viability at 48 h, 30 μM: 96.3%
[7]; cytotoxicity, 24 h
  EC50 at 24 h: > 30 µM
[7]; cytotoxicity, 48 h
  EC50 at 48 h: > 30 µM
HepG2 cells
  EC50 Fold difference: >12
[8]
  EC50: 0.3 µM
[9]
  EC50: 3.37 ± 0.26 µM
[10]; PC12-SOD1^G85R YFP cells, 0.7 μM MG132, 72 h, Inactive = no decrease of aggregates at 10 μM vs vehicle
  EC50: 2.52 ± 0.38 µM
[10]; at 10 μM, 72 h
  decrease in MG132-induced SOD-1^G85R aggregate formation: marked decrease
[11]
  Log Pe: −5.16
